Test results taken from PMC11203266, “Continuous evolution of compact protein degradation tags regulated by selective molecular glues” (Science (New York, N.Y.), 2024).

Tests used:
Assay type in all cases: cell-based, human
[1] = system: HEK293T cells stably expressing SD40–eGFP; experiment: Global quantitative proteomics, HEK293T expressing SD40–eGFP; details: 1 µM
Procedure: To test the versatility of SD40, we generated five stable HEK293T cell lines that exogenously express N- or C-terminal SD40 fusions with Nluc, Fluc, and the kinase activator PRKRA. […] To investigate whether SD40 targets unintended neosubstrates for degradation, we performed global proteomics using HEK293T cells stably expressing SD40–eGFP.
(§1) Cells were lysed by addition of lysis buffer (8 M Urea, 50 mM NaCl, 50 mM 4-(2-hydroxyethyl)-1-piperazineethanesulfonic acid (EPPS) pH 8.5, Protease and Phosphatase inhibitors) and homogenization by bead beating (BioSpec) for three repeats of 30 seconds at 2400. Bradford assay was used to determine the final protein concentration in the clarified cell lysate. 50 μg of protein for each sample was reduced, alkylated and precipitated using methanol/chloroform as previously described ([32]) and the resulting washed precipitated protein was allowed to air dry. Precipitated protein was resuspended in 4 M Urea, 50 mM HEPES pH 7.4, followed by dilution to <1 M urea with the addition of 200 mM EPPS, pH 8. Proteins were digested with LysC (1:50; enzyme:protein) and trypsin (1:50; enzyme:protein) overnight at 37 °C. Sample digests were acidified with formic acid to a pH of 2-3 prior to desalting using C18 solid phase extraction plates (SOLA, Thermo Fisher Scientific). Desalted peptides were dried in a vacuum centrifuge and reconstituted in 0.1% formic acid for LC-MS analysis.
(§2) Data were collected using a TimsTOF Pro2 (Bruker Daltonics, Bremen, Germany) coupled to a nanoElute LC pump (Bruker Daltonics, Bremen, Germany) via a CaptiveSpray nano-electrospray source. Peptides were separated on a reversed-phase C18 column (25 cm x 75 μm ID, […], IonOpticks, Australia) containing an integrated captive spray emitter. Peptides were separated using a 50 min gradient of 2 – 30% buffer B (acetonitrile in 0.1% formic acid) with a flow rate of 250 nL/min and column temperature maintained at 50 °C.
(§3) DDA was performed in Parallel Accumulation-Serial Fragmentation (PASEF) mode to determine effective ion mobility windows for downstream diaPASEF data collection (Meier et al., 2020). The ddaPASEF parameters included: 100% duty cycle using accumulation and ramp times of 50 ms each, 1 TIMS-MS scan and 10 PASEF ramps per acquisition cycle. The TIMS-MS survey scan was acquired between 100–1700 m/z and 1/k0 of 0.7–1.3 V.s/cm^2. Precursors with 1–5 charges were selected and those that reached an intensity threshold of 20,000 arbitrary units were actively excluded for 0.4 min. The quadrupole isolation width was set to 2 m/z for m/z <700 and 3 m/z for m/z >800, with the m/z between 700–800 m/z being interpolated linearly. The TIMS elution voltages were calibrated linearly with three points (Agilent ESI-L Tuning Mix Ions; 622, 922, 1,222 m/z) to determine the reduced ion mobility coefficients (1/K0). To perform diaPASEF, the precursor distribution in the DDA m/z-ion mobility plane was used to design an acquisition scheme for DIA data collection which included two windows in each 50 ms diaPASEF scan. Data was acquired using sixteen of these 25 Da precursor double window scans (creating 32 windows) which covered the diagonal scan line for doubly and triply charged precursors, with singly charged precursors able to be excluded by their position in the m/z-ion mobility plane. These precursor isolation windows were defined between 400–1200 m/z and 1/k0 of 0.7–1.3 V.s/cm^2.
(§4) The diaPASEF raw file processing and controlling peptide and protein level false discovery rates, assembling proteins from peptides, and protein quantification from peptides was performed using either targeted, cell line specific spectral libraries generated by searching offline fractionated DDApasef data against a Swissprot human or mouse database (January 2021) or using library free analysis in DIA-NN 1.8 ([85]). […]

KELLY cells = experiment: Global quantitative proteomics, KELLY; details: 1 µM; for proteins downregulated (in words): 5 hours
Procedure: as §1, §2, §3
as §4, with “([85]). Library free mode performs an in-silico digestion of a given protein sequence database alongside deep learning-based predictions to extract the DIA precursor data into a collection of MS2 spectra. The search results are then used to generate a spectral library which is then employed for the targeted analysis of the DIA data searched against a Swissprot human or mouse database (January 2021).” for “([85]).”

MM.1S cells = experiment: Whole-transcriptome RNA-Seq; details: for differentially expressed genes: 1 μM, 48 hrs, fold-change > 2, FDR-corrected P < 0.01
Procedure: The effect of small molecule treatment on transcriptome-wide RNA expression was evaluated using bulk RNA sequencing of 5 biological replicates per sample. […] 48 hours following treatment, cells were washed with PBS and lysed in RLT buffer (Qiagen) with β-mercaptoethanol. Total RNA from each sample was purified from 2–4×10^5 cells using the RNeasy Mini Kit (Qiagen) with on-column DnaseI digestion and eluted in nuclease-free water. Polyadenylated RNA was sequenced using Smart-seq2 as previously described ([82]) with two changes: 20 ng of total RNA and Maxima Rnase H-minus reverse transcriptase (Thermo Fisher) were used for the initial reverse transcription step. The resulting cDNA libraries were sequenced on an Illumina NextSeq 550 High Output kit with the following run parameters: 37 cycles for read1, 37 cycles for read2, 8 cycles for index1, and 8 cycles for index2.
Sequencing data were demultiplexed with bcl2fastq and roughly 40 million paired-end reads were obtained per sample. Transcript-level quantification was performed using kallisto ([83]) with the homo sapiens GRCh38 reference transcriptome and with bootstrapping. Differential expression analysis at the gene level was conducted using Deseq2 with batch correction of biological replicates ([84]). To pre-filter low count genes, only genes with at least 10 counts in at least 5 samples were analyzed. Compared between conditions, genes with a transcript abundance fold-change > 2 and with a false discovery rate-corrected P-value < 0.01 were called as differentially expressed.

[2] = vs DMSO, 5 hr, HEK293T SD40–eGFP
[3] = vs DMSO, 24 hr, HEK293T SD40–eGFP

For `O=C1CCC(N2C(=O)c3ccc(N4CCOCC4)cc3C2=O)C(=O)N1` (centres unmarked) [PT-179], the “proteins degraded (in words)” value ([1]; 5 and 24 hours, ≥ 2-fold at p ≤ 0.0001, ~7,800 detected) was “SD40–eGFP was the only significantly degraded protein”, the “logFC MFSD10 (Q14728)” value [1, 2] was -5.07E-01 and the “logFC RAB18 (Q9NP72)” value [1, 2] was -1.62E-01. The “logFC RALY (Q9UKM9)” value [1, 2] was -1.52E-01, the “logFC SD40 (XSD40X; SD40–eGFP)” value [1, 2] was -4.05E+00 and the “logFC SYNCRIP (O60506)” value [1, 2] was -1.02E-01. The “logFC H2AFV (Q71UI9)” value [1, 3] was 1.94E-01, the “logFC RPS15 (P62841)” value [1, 3] was 1.99E-01 and the “logFC SD40 (XSD40X; SD40–eGFP)” value [1, 3] was -3.53E+00. The “logFC SUMO1P1 (G2XKQ0)” value [1, 3] was 1.61E-01, the “logFC TAGLN3 (Q9UI15)” value [1, 3] was 4.42E-01 and the “proteins downregulated (in words)” value (KELLY cells) was “no significant degradation of detected proteins”. The “logFC GLMP (Q8WWB7)” value (KELLY cells; vs DMSO, 5 hr, KELLY) was -1.07E+00, the “logFC KIAA1958 (Q8N8K9)” value (KELLY cells; vs DMSO, 5 hr, KELLY) was -1.94E+00 and the “logFC SYT14 (Q8NB59)” value (KELLY cells; vs DMSO, 5 hr, KELLY) was -1.10E+00. For the same compound, the “logFC TIMM8B (Q9Y5J9)” value (KELLY cells; vs DMSO, 5 hr, KELLY) was -1.14E+00, the “logFC TUB (P50607)” value (KELLY cells; vs DMSO, 5 hr, KELLY) was -1.12E+00 and the differentially expressed genes (MM.1S cells) was “three”. The “decrease in the frequency of gene expression perturbation” value (MM.1S cells; PT-179 vs pomalidomide) was 475 fold.
For `Nc1cccc2c1C(=O)N(C1CCC(=O)NC1=O)C2=O` (centres unmarked) [pomalidomide, reference compound], the “proteins degraded (in words)” value ([1]; 5 hours) was “SD40-eGFP was significantly degraded alongside multiple known endogenous neosubstrates of pomalidomide”, the “logFC MCFD2 (Q8NI22)” value [1, 2] was -1.02E+00 and the “logFC SD40 (XSD40X; SD40–eGFP)” value [1, 2] was -4.04E+00. For the same compound, the “logFC SRSF3 (P84103)” value [1, 2] was -1.12E-01, the “logFC SURF4 (O15260)” value [1, 2] was 2.44E-01 and the “logFC ZFP91 (Q96JP5)” value [1, 2] was -2.03E+00. For the same compound, the “proteins downregulated (in words)” value (KELLY cells) was “robust downregulation of the developmental transcription factor SALL4 ([32]) and ZFP91”, the “logFC DTWD1 (Q8N5C7)” value (KELLY cells; vs DMSO, 5 hr, KELLY) was -1.64E+00 and the “logFC GID8 (Q9NWU2)” value (KELLY cells; vs DMSO, 5 hr, KELLY) was -1.75E+00. For the same compound, the “logFC RAB28 (P51157)” value (KELLY cells; vs DMSO, 5 hr, KELLY) was -1.53E+00, the “logFC SALL4 (Q9UJQ4)” value (KELLY cells; vs DMSO, 5 hr, KELLY) was -2.26E+00 and the “logFC SSNA1 (O43805)” value (KELLY cells; vs DMSO, 5 hr, KELLY) was -1.42E+00. The differentially expressed genes (MM.1S cells) was 1,426 genes.
